Broadly, the pIC50 is −log10 of the IC50, conventionally taken in molar units. A high value points to a low IC50.

pIC50: −log10 of the molar value. Where only a bound is given, the exact number is not on record here.

This note sets out measurements from ChEMBL document CHEMBL4261633, “Butenolides from a marine-derived fungus Aspergillus terreus with antitumor activities against pancreatic ductal adenocarcinoma cells” (Bioorg Med Chem, 2018).

Holding throughout (format): functional, cell-based
One assay concerns BEAS-2B. The experiment in a line: Antiproliferative activity against human BEAS2B cells after 24 hrs by CCK8 assay. On the technique in general: Tetrazolium assays rely on reduction of a dye to a coloured formazan, in cell work by metabolically active cells.
A further assay concerns HT-29. The experiment in a line: Antiproliferative activity against human HT-29 cells after 24 hrs by CCK8 assay. Conditions: HT-29, 24 h.
The next assay has as its system HepG2. The experiment in a line: Antiproliferative activity against human HepG2 cells after 24 hrs by CCK8 assay. Conditions: HepG2, 24 h.
The subject of a further assay is PANC-1. The experiment in a line: Antiproliferative activity against human PANC1 cells after 24 hrs by CCK8 assay. Conditions: PANC-1, 24 h.
The test system of a further assay is HCC1806. In words: Antiproliferative activity against human HCC1806 cells after 24 hrs by CCK8 assay. The conditions noted are these: HCC1806, 24 h.

For `COC(=O)[C@]1(Cc2ccc(O)c(CC3OC3(C)C)c2)OC(=O)C(O)=C1c1ccc(O)cc1` (some centres undefined), the pIC50 with BEAS-2B, in the assay on HT-29, in the assay on HepG2, in the assay with PANC-1 and in the assay with HCC1806 was less than 4.70 each time.
Regarding `COC(=O)[C@]1(Cc2ccc(O)c(CC=C(C)C)c2)OC(=O)C(O)=C1c1ccc(O)cc1`, the negative-log IC50 (pIC50) in the assay on BEAS-2B, with HT-29, with HepG2, with PANC-1 and with HCC1806 was less than 4.70 each time.
In the case of `COC(=O)[C@]1(Cc2ccc3c(c2)C[C@H](C(C)(C)O)O3)OC(=O)C(O)=C1c1ccc(O)cc1` [BUTYROLACTONE IV], the pIC50 in the assay with BEAS-2B, with HT-29, in the assay with HepG2, in the assay with PANC-1 and with HCC1806 was less than 4.70 each time.
Consider `CC(=O)O[C@H]1C(=O)[C@@]2(C)[C@H]([C@H](OC(=O)c3ccccc3)[C@]3(O)C[C@H](OC(=O)[C@H](O)[C@@H](NC(=O)c4ccccc4)c4ccccc4)C(C)=C1C3(C)C)[C@]1(OC(C)=O)CO[C@@H]1C[C@@H]2O` [PACLITAXEL], for which the pIC50 with BEAS-2B was 8.15; in the assay on HepG2, 8.05; in the assay with PANC-1, 7.40; in the assay with HCC1806 it was 9.00.
In the case of `COC(=O)[C@]1(Cc2ccc3c(c2)CC(O)C(C)(C)O3)OC(=O)C(O)=C1c1ccccc1` (some centres undefined), the pIC50 with BEAS-2B, in the assay with HT-29, in the assay on HepG2, with PANC-1 and in the assay with HCC1806 was less than 4.70 throughout.
On to `CC(C)(O)C1Cc2cc(C[C@H]3OC(=O)C(O)=C3c3ccc(O)cc3)ccc2O1` (some centres undefined), for which the pIC50 in the assay on BEAS-2B, in the assay on HT-29, in the assay on HepG2, with PANC-1 and with HCC1806 was less than 4.70 each time.
Take `COC(=O)[C@]1(Cc2ccc(O)c(C[C@@H](O)C(C)C)c2)OC(=O)C(O)=C1c1ccc(O)cc1`: the pIC50 in the assay with BEAS-2B, in the assay on HT-29, in the assay with HepG2, with PANC-1 and in the assay with HCC1806 was less than 4.70 throughout.
As to `COC(=O)[C@]1(Cc2ccc3c(c2)CC(C(C)(C)O)O3)OC(=O)C(O)=C1c1ccccc1` (some centres undefined), the negative logarithm of the IC50 (pIC50) in the assay with BEAS-2B, with HT-29, with HepG2, in the assay with PANC-1 and in the assay on HCC1806 was less than 4.70 in each case.
On to `COC(=O)[C@]1(Cc2ccc3c(c2)CCC(C)(C)O3)OC(=O)C(O)=C1c1ccc(O)cc1`, for which the pIC50 with BEAS-2B, in the assay with HT-29, with HepG2, with PANC-1 and in the assay on HCC1806 was less than 4.70 throughout.
In the case of `COC(=O)[C@]1(Cc2ccc3c(c2)C=CC(C)(C)O3)OC(=O)C(O)=C1c1ccc(O)cc1`, the pIC50 with BEAS-2B, in the assay on HT-29, in the assay with HepG2, in the assay with PANC-1 and in the assay with HCC1806 was less than 4.70 each time.
Consider `COC(=O)[C@]1(Cc2ccc3c(c2)C[C@H](O)C(C)(C)O3)OC(=O)C(O)=C1c1ccc(O)cc1` [BUTYROLACTONE V], for which the pIC50 in the assay with BEAS-2B, with HT-29, in the assay with HepG2, in the assay with PANC-1 and with HCC1806 was less than 4.70 each time.
